These results are taken from US11352400B2, “PI3K gamma inhibitor peptide for treatment of respiratory system diseases” (Kither Biotech S.r.I., priority 2014, dated 2022).

One assay concerns CFTR. The assay is described as follows: cAMP-mediated (PKA) phosphorylation of CFTR in NuLi-1 cells. It is filed as cell-based, human. To be noted: 30 minutes. The method, then:
(§1) Human airway epithelial cell lines expressing a wild-type CFTR (NuLi-1) or with the ΔF508 mutation (CuFi-1) were purchased from ATCC (NuLi-1 product code: ATCC® CRL-4011™; CuFi-1 product code: ATCC® CRL-4013™). Cells were cultured in Dulbecco's Modified Eagle Medium (DMEM, Gibco, Carlsbad, Calif.) supplemented with 10% fetal bovine serum (FBS), 30 μg/mL of penicillin, 100 μg/mL of streptomycin and 300 μg/mL hygromycin B (Gibco, Carlsbad, Calif.).
For immunoprecipitation assays, protein extracts were pre-incubated with 30 μL of a 1:1 mixture of protein A or G and sepharose (Amersham Biosciences, Buckinghamshire, UK) and subsequently incubated with 20 μL of a 1:1 mixture of protein A or G and sepharose and […] of primary antibody for each mg of protein, for 2 hours at 4° C. Immune complexes were washed extensively with lysis buffer and used for Western blotting or subjected to measurements of phosphodiesterase activity.
The antibody that recognizes substrates phosphorylated by PKA (P-PKA substrate) was purchased from Cell Signaling Technology (Danvers, Mass., USA; product code: #9621) and the antibody against CFTR clone M3A7 from Millipore (Billerica, Mass., USA; product code: 05-583).

Another assay concerns PDE4B. The assay is described as follows: Phosphodiesterase activity in anti-PDE4B immunoprecipitates from treated tracheal smooth muscle cells. Format: cell-based, mouse. The following applies: tracheal smooth muscle cells of wild-type mice (PI3Kγ+/+); 50 μM, 30 minutes. The method, then:
For protein extraction from murine tracheal smooth muscle cells (mTSMCs) and human bronchial smooth muscle cells (hBSMCs), cells were treated with the indicated drugs/peptides and immediately lysed in cold lysis buffer containing 120 mmol/L NaCl, 50 mmol/L Tris-HCl (pH 8.0), complete protease inhibitors (Roche Applied Science, Indianapolis, Ind.) and phosphatase inhibitors (50 mmol/L sodium fluoride, 1 mmol/L sodium orthovanadate and 10 mmol/L sodium pyrophosphate). After 30 min of incubation on ice, lysates were centrifuged at 13000 rpm for 10 min at 4° C. and used for either Western blotting or subjected to immunoprecipitation and measurements of phosphodiesterase activity. […]
Phosphodiesterase activity in immunoprecipitates was measured according to the two-step method of Thompson and Appleman, as previously described (2), with minor modifications. […] The amount of radiolabeled adenosine in the supernatant was quantified by scintillation counting (Ultima Gold liquid scintillation from Perkin Elmer, Waltham, Mass.).
Murine tracheal smooth muscle cells were cultured from explants of trachea using previously described methods with modifications. […] More than 90% of these cells were smooth muscle cells, as determined by immunofluorescence performed with an antibody specific for smooth muscle actin. […]

A further assay concerns ΔF508-CFTR. The assay is described as follows: Chloride currents in Ussing chamber, CuFi-1 cells. It is filed as cell-based, human. To be noted: CuFi-1 cells corrected with VX-809 (20 μM, 24 hours); peptide 10 μM in the presence of VX-770 10 μM. The method, then:
as §1
(§2) To measure chloride currents in normal and ΔF508 primary human bronchial epithelial cells, cells were cultured on 1.12 cm^2 Snapwell inserts. Filters were mounted in Ussing chambers, and a chloride gradient was applied by incubating the cells in a basolateral high-chloride buffer containing (in mmol/L): 140 NaCl, 5 KCl, 0.36 K2HPO4, 0.44 KH2PO4, 1.3 CaCl2, 0.5 MgCl2, 4.2 NaHCO3, 10 HEPES, and 10 glucose, at pH 7.4 and an apical low-chloride buffer containing (in mmol/L): 133.3 Na-gluconate, 5 K-gluconate, 2.5 NaCl, 0.36 K2HPO4, 0.44 KH2PO4, 5.7 CaCl2, 0.5 MgCl2, 4.2 NaHCO3, 10 HEPES, and 10 mannitol, at pH 7.4. Buffers were aerated with a mixture of 95% O2 and 5% CO2 and the temperature was maintained at 37° C. during the experiment. […] After a stabilization period of 30 minutes, drugs were added at specific times, while the current was continuously recorded.

In the next assay the test system is wild-type CFTR. The assay is described as follows: Chloride currents in Ussing chamber, NuLi-1 cells. It is filed as cell-based, human. The following applies: peptide 10-30 μM, P1 30 μM. The method, then: as §1, §2
The subject of assay [1] is Cav1.2 subunit (Ser-1928) of the L-type calcium channel (LTCC). The assay is described as follows: Western blot of cAMP-dependent phosphorylation of Cav1.2 in hBSMCs. Format: cell-based, human. To be noted: 50 μM, 30 minutes, vs vehicle or P1. The method, then:
For protein extraction from murine tracheal smooth muscle cells (mTSMCs) and human bronchial smooth muscle cells (hBSMCs), cells were treated with the indicated drugs/peptides and immediately lysed in cold lysis buffer containing 120 mmol/L NaCl, 50 mmol/L Tris-HCl (pH 8.0), complete protease inhibitors (Roche Applied Science, Indianapolis, Ind.) and phosphatase inhibitors (50 mmol/L sodium fluoride, 1 mmol/L sodium orthovanadate and 10 mmol/L sodium pyrophosphate). After 30 min of incubation on ice, lysates were centrifuged at 13000 rpm for 10 min at 4° C. and used for either Western blotting or subjected to immunoprecipitation and measurements of phosphodiesterase activity.

As to “RQIKIWFQNRRMKWKKGKATHRSPGQIHLVQRHPPSEESQAF (fusion peptide comprising SEQ ID No.1 and SEQ ID No.3) [Trojan peptide derived from PI3Kγ]”, the “CFTR phosphorylation (cAMP-mediated)” value in the assay with CFTR (25 μM, vs vehicle or P1) is on record as “significantly higher”. The “cAMP-dependent CFTR phosphorylation induced by a PDE4 inhibitor” value in the assay on CFTR (peptide 25 μM together with Rolipram 10 μM) is recorded as “further enhanced”. For the same sequence, in the assay on PDE4B, the “catalytic activity of PDE4B” value was “significantly reduced”. For the same sequence, the “increase of the CFTR currents over basal activity” value with ΔF508-CFTR is “about 5 fold”. Also, the “CFTR-dependent Cl− currents” value with wild-type CFTR was “increased significantly”. In addition, in assay [1], the “cAMP-mediated phosphorylation of Cav1.2” value is “significantly higher”.
